Data on 1 compound can be found in PMC8658016, “Identification of New Compounds with Anticonvulsant and Antinociceptive Properties in a Group of 3-substituted (2,5-dioxo-pyrrolidin-1-yl)(phenyl)-Acetamides” (International Journal of Molecular Sciences, 2021).

One data set deals with mice. As to the kind of experiment: Subcutaneous pentylenetetrazole (scPTZ) seizure test. The format is in vivo, mouse. The note with it: mice i.p.
Data set [1] in a line: Rectal temperature measurement. Type of data set: in vivo, mouse. The note with it: 30 and 60 mg/kg i.p., 30 min. The protocol: Figure 4 Acute effect of compound 14 on rectal temperature in mice. Compound 14 was administered i.p. 30 min before the seizure test. Control animals received vehicle only. Each experimental group consisted of 10 animals. Each bar represents the mean difference between the pre-injection and post-injection values of rectal temperature in mice (ΔT) + S.E.M. Data were analyzed with one-way ANOVA test (GraphPad Prism 8.0.1).
In this study, we used adult male Swiss albino mice (Kołacz, Laboratory Animals Breeding, Warszawa, Poland) license no. 106/2019 (Local Ethical Committee in Lublin). […]
The timed ivPTZ test was employed to evaluate the acute effect of compound 14 on the seizure thresholds for (1) the first myoclonic twitch, (2) generalized clonic seizure with loss of righting reflex, and (3) forelimb tonus. […] The changes in temperature were recorded using an electronic thermometer (ThermoWorks, Alpine, UT, USA). […]
The probe remained in the rectum for several second, allowing for temperature stabilization. The temperature was recorded just before injection of compound 14 or vehicle and 30 min later. The difference between the pre- and post-injection temperature value was then calculated (Δ °C).

A further data set has as its system rats. As to the kind of experiment: Carrageenan-induced thermal hyperalgesia (radiant heat). Type of data set: in vivo, rat. The note with it: 80 mg/kg. An excerpt: To test the anti-inflammatory activity and the potential to attenuate inflammatory pain, we tested compound 14 in the model of carrageenan-induced aseptic inflammation. In this model, the subplantar injection of carrageenan induced an edema, mechanical, and thermal hyperalgesia. […] In our opinion, the most surprising and interesting was the long-lasting anti-edematous effect. It may result from the pharmacokinetic properties of compound 14, but also from its unique mechanism. Since inflammation is one of the critical components of neuropathy, the anti-inflammatory activity of compound 14 may be a valuable and distinctive property from classical ASDs used to treat neuropathic pain [33]. […] The pain threshold reached 87.3%, 90.9%, and 89.7% of its initial value 3, 6, and 24 h after carrageenan injection, respectively. […] The initial latency for compound 14-treated animals was 8.95 ± 0.4 s. The administration of compound 14 changed the values to 127.0%, 102.0%, 79.8%, 83.8%, and 164.4% of the initial value 1, 2, 3, 6-, and 24-h following carrageenan injection, respectively.
The experiments were conducted on adult male Albino Swiss mice (CD-1, 18–25 g) and male Wistar rats (Krf:(WI) WU), 180–250 g) as described previously. The minimum number of animals used needed to obtain definite and normally distributed results with the utilized test. Behavioral measures were scored by trained observers, which were blind to experimental conditions. The following devices were used in the experiments: Analgesy Meter (37215, Ugo Basile), Plantar Test Apparatus (EFV5, Commat Ltd., Turkey), Plethysmometer (Plethysmometer 7140, Ugo Basile), Electronic von Frey unit (BIOSEB, France). All procedures were performed according to the European Union Directive of 22 September 2010 (2010/63/EU) and approved by the Local Ethics Committee for Experiments on Animals in Krakow, Poland (resolution no. 105/2016).
Figure 8 Effect of compound 14 on carrageenan-induced oedema (A), mechanical hyperalgesia (B), and thermal hyperalgesia (C), developed after subplantar injection of 1% carrageenan in rats. Data are expressed as means ± S.E.M. for 6 animals; 0—the initial value considered as the paw volume (A) or nociceptive reaction (B,C) before carrageenan administration. Statistical significance compared to vehicle-treated animals (control): * p < 0.05, ** p < 0.01, *** p < 0.001, **** p < 0.0001. Statistical analysis: two-way ANOVA post hoc Bonferroni test. Statistical significance in different time points of control group: ^# p < 0.05, ^## p < 0.01, ^### p < 0.001. Statistical analysis: one-way ANOVA, followed by Dunnett’s multiple comparison test (GraphPad Prism 8.0.1).

With `CN(C)C1CC(=O)N(C(C(=O)N2CCN(c3cccc(C(F)(F)F)c3)CC2)c2ccccc2)C1=O.Cl` (centres unmarked) [Compound 14, 3-(Dimethylamino)-1-(2-oxo-1-phenyl-2-(4-(3-(trifluoromethyl)phenyl)-piperazin-1-yl)ethyl)pyrrolidine-2,5-dione hydrochloride], the 50% effective dose (ED50) (as a rule, the midpoint of the dose-response relation) with mice (Mus musculus, ip, 95% confidence interval in parentheses) was determined as 67.4 mg/kg. The “scPTZ screening: number of mice protected / number of mice tested” value in the data set on mice (100 mg/kg, 0.5 h) is 2/4. For the same compound, in data set [1], the “effect on body (rectal) temperature” value is reported as “did not produce statistically significant changes”. For the same compound, the “latency of nociceptive response to radiant heat, % of the initial value” in the data set on rats (1 h after carrageenan) is 127.0%; in the data set with rats (2 h after carrageenan), 102.0%; in the data set on rats (3 h after carrageenan) it was 79.8%; in the data set on rats (6 h after carrageenan), 83.8%; in the data set with rats (24 h after carrageenan), 164.4%.
